Patent US6020366A, “Butyric acid matrix metalloproteinase inhibitors” (priority 1998, dated 2000)
Read-outs that look alike come from different tables or passages of the source.

Experiments:
Type in all cases: biochemical
MMP-2 (Gelatinase A) = target: T1, MMP-2 (Gelatinase A) (Homo sapiens, UniProt P08253); test: inhibition of MMP-2 hydrolysis of thiopeptolide substrate
T1 sequence (P08253 110-660): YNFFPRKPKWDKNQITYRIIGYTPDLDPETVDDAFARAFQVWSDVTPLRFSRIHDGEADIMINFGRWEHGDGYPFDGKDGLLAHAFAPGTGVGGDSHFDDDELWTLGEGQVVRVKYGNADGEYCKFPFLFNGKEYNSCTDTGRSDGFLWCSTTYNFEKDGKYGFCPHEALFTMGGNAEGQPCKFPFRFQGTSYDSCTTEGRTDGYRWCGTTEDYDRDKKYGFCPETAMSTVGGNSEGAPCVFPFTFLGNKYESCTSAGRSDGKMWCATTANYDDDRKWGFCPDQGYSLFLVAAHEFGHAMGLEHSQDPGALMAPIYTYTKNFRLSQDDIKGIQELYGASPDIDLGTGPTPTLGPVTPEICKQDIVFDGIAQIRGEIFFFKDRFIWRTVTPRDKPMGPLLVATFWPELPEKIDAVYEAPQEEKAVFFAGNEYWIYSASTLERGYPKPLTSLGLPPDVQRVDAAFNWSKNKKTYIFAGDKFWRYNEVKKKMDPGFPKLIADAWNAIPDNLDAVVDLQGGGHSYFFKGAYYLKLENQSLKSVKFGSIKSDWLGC

MMP-3 (stromelysin) = MMP-3 (stromelysin) (Homo sapiens, UniProt P08254); test: inhibition of MMP-3 hydrolysis of thiopeptolide substrate
Description: The assays measure the amount by which a test compound reduces the hydrolysis of a thiopeptolide substrate caused by a matrix metalloproteinase enzyme. Such assays are described in detail by Ye, et al., in Biochemistry, 1992;31(45):11231-11235).
Thiopeptolide substrates show virtually no decomposition or hydrolysis in the absence of a matrix metalloproteinase enzyme. A typical thiopeptolide substrate commonly utilized for assays is Ac-Pro-Leu-Gly-thioester-Len-Len-Gly-O Et. […] Assays are carried out with and without matrix metalloproteinase inhibitor compounds, and the amount of hydrolysis is compared for a determination of inhibitory activity of the test compounds.
In the table, MMP-1 refers to interstitial collagenase; MMP-2 refers to Gelatinase A; MMP-3 refers to stromelysin; MMP-7 refers to matrilysin; and MMP-13 refers to Collagenase 3.

MMP-13 (Collagenase 3) = MMP-13 (Collagenase 3) (Homo sapiens, UniProt P45452); test: inhibition of MMP-13 hydrolysis of thiopeptolide substrate
Description: The invention compounds have been evaluated in standard in vitro assays and shown to be potent inhibitors of several matrix metalloproteinase enzymes.

[1] = thiopeptolide substrate, pH 6.0, 22° C., read-out: (IC50) MMP-2
[2] = thiopeptolide substrate, pH 6.0, 22° C., read-out: (IC50) MMP-3
[3] = thiopeptolide substrate, pH 6.0, 22° C., read-out: (IC50) MMP-13

Chain of MMP-3 (stromelysin) (P08254 100-477): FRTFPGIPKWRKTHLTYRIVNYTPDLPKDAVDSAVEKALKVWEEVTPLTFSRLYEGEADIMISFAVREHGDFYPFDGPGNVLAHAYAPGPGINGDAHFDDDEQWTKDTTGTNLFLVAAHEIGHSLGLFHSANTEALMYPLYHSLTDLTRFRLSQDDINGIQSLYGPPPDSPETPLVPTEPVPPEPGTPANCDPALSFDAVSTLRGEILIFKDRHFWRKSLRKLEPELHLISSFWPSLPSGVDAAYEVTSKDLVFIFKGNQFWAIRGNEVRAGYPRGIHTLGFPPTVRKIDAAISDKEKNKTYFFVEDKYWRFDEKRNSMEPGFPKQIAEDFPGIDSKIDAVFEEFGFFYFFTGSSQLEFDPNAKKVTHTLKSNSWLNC

IC50 (MMP-2 (Gelatinase A); [1]) [µM]	IC50 (MMP-3 (stromelysin); [2]) [µM]	IC50 (MMP-13 (Collagenase 3); [3]) [µM]	Compound	IC50 (MMP-2 (Gelatinase A)) [µM]	IC50 (MMP-3 (stromelysin)) [µM]	IC50 (MMP-13 (Collagenase 3)) [µM]
44	78		O=C(C[C@@H](NC(=O)C(F)(F)F)C(=O)O)c1ccc2oc3ccccc3c2c1 [Example 2, (R)-4-Dibenzofuran-2-yl-4-oxo-2-(2,2,2-trifluoroacetylamino)-butyric acid]			
0.32	1.7		CC(C)c1cccc(C(C)C)c1NC(=O)N[C@@H](CC(=O)c1ccc2oc3ccccc3c2c1)C(=O)O [Example 5, (S)-4-Dibenzofuran-2-yl-2-[3-(2,6-diisopropyl-phenyl)-ureido]-4-oxo-butyric acid]			
0.18	0.91		O=C(C[C@H](NC(=O)c1ccccc1)C(=O)O)c1ccc2oc3ccccc3c2c1 [Example 6, (S)-2-Benzoylamino-4-dibenzofuran-2-yl-4-oxo-butyric acid]			
0.067	0.29	1.3	O=C(CCc1ccccc1)N[C@@H](CC(=O)c1ccc2oc3ccccc3c2c1)C(=O)O [Example 8, (S)-4-Dibenzofuran-2-yl-4-oxo-2-(3-phenylpropionylamino)-butyric acid]			
0.51	3.9		O=C(CCCCCCc1ccccc1)N[C@@H](CC(=O)c1ccc2oc3ccccc3c2c1)C(=O)O [Example 9, (S)-4-Dibenzofuran-2-yl-4-oxo-2-(7-phenylheptanoylamino)-butyric acid]			
1.64	9.4		O=C(C[C@H](NC(=O)c1ccc(-c2ccccc2)cc1)C(=O)O)c1ccc2oc3ccccc3c2c1 [Example 10, (S)-2-[(Biphenyl-4-carbonyl)-amino]-4-dibenzofuran-2-yl-4-oxo-butyric acid]			
0.36	2.7	6.8	CCCCCCCC(=O)N[C@@H](CC(=O)c1ccc2oc3ccccc3c2c1)C(=O)O [Example 11, (S)-4-Dibenzofuran-2-yl-4-oxo-2-(octanoylamino)-butyric acid]			
8.8	4		CCCCCCCCCCCC(=O)N[C@@H](CC(=O)c1ccc2oc3ccccc3c2c1)C(=O)O [Example 12, (S)-4-Dibenzofuran-2-yl-4-oxo-2-(dodecanoylamino)-butyric acid]			
0.28	9.2		CS(=O)(=O)N[C@@H](CC(=O)c1ccc2oc3ccccc3c2c1)C(=O)O [Example 13, (S)-4-Dibenzofuran-2-yl-4-oxo-2-methanesulfonylamino-butyric acid]			
12.5	76.5		O=C(C[C@H](NC(=O)C(F)(F)F)C(=O)O)c1ccc2c(c1)Cc1ccccc1-2 [Example 15, (S)-4-(9H-fluoren-2-yl)-4-oxo-2-(2,2,2-trifluoroacetylamino)-butyric acid]			
0.72	6.6	2.4	O=C(O)[C@H](CC(=NO)c1ccc2oc3ccccc3c2c1)NC(=O)C(F)(F)F [Example 16, (S)-4-Dibenzofuran-2-yl-4-hydroxyimino-2-(2,2,2-trifluoroacetylamino)-butyric acid]			
0.1	0.36	1.1	O=C(CC(NC(=O)C(c1ccccc1)c1ccccc1)C(=O)O)c1ccc2oc3ccccc3c2c1 (stereo not drawn) [Example 18, 4-Dibenzofuran-2-yl-2-diphenylacetylamino-4-oxo-butyric acid]			
0.64	3.1	46	O=C(COc1ccc(Cl)cc1)NC(CC(=O)c1ccc2oc3ccccc3c2c1)C(=O)O (stereo not drawn) [Example 19, 2-[2-(4-Chloro-phenoxy)-acetylamino]-4-dibenzofuran-2-yl-4-oxo-butyric acid]			
1.3	7	38	O=C(CC(NC(=O)c1ccc(Cl)c(Cl)c1)C(=O)O)c1ccc2oc3ccccc3c2c1 (stereo not drawn) [Example 20]			
0.32	2.4	16	COc1ccc(CC(=O)NC(CC(=O)c2ccc3oc4ccccc4c3c2)C(=O)O)cc1OC (stereo not drawn) [Example 21, 4-Dibenzofuran-2-yl-2-[2-(3,4-dimethoxy-phenyl)-acetylamino] -4-oxo-butyric acid]			
1.7	6.9	28	O=C(CC(NC(=O)c1ccc2ccccc2c1)C(=O)O)c1ccc2oc3ccccc3c2c1 (stereo not drawn) [Example 22, 4-Dibenzofuran-2-yl-2-[(naphthalene-2-carbonyl)-amino] -4-oxo-butyric acid]			
0.17	0.76	5.6	CCCC(C)(C)C(=O)NC(CC(=O)c1ccc2oc3ccccc3c2c1)C(=O)O (stereo not drawn) [Example 23, 4-Dibenzofuran-2-yl-2-(2,2-dimethyl-pentanoylamino)-4-oxo-butyric acid]			
3.2	13	41	O=C(CC(NC(=O)c1ccncc1)C(=O)O)c1ccc2oc3ccccc3c2c1 (stereo not drawn) [Example 24, 4-Dibenzofuran-2-yl-4-oxo-2-[(pyridine-4-carbonyl)-amino]-butyric acid]			
0.11	0.8	8.4	O=C(C=Cc1ccccc1)NC(CC(=O)c1ccc2oc3ccccc3c2c1)C(=O)O (stereo not drawn) [Example 25, 4-Dibenzofuran-2-yl-4-oxo-2-(3-phenyl-acryloylamino)-butyric acid]			
2.1	9.2	40	O=C(CC(NC(=O)C12CC3CC(CC(C3)C1)C2)C(=O)O)c1ccc2oc3ccccc3c2c1 (stereo not drawn) [Example 26, 2-[(Adamantane-1-carbonyl)-amino]-4-dibenzofuran-2-yl-4-oxo-butyric acid]			
			O=C(CC(NC(=O)C(F)(F)C(F)(F)C(F)(F)C(F)(F)C(F)(F)C(F)(F)C(F)(F)F)C(=O)O)c1ccc2oc3ccccc3c2c1 (stereo not drawn) [Example 27, 4-Dibenzofuran-2-yl-4-oxo-2-(2,2,3,3,4,4,5,5,6,6,7,7,8,8,8-pentadecafluoro-octanoylamino)-butyric acid]	4.6	18	77
0.18	0.51	12	O=C(COc1ccccc1)NC(CC(=O)c1ccc2oc3ccccc3c2c1)C(=O)O (stereo not drawn) [Example 28, 4-Dibenzofuran-2-yl-4-oxo-2-(2-phenoxy-acetylamino)-butyric acid]			
	0.39	5.2	Cc1ccc(C(=O)NC(CC(=O)c2ccc3oc4ccccc4c3c2)C(=O)O)cc1 (stereo not drawn) [Example 29, 4-Dibenzofuran-2-yl-2-(4-methyl-benzoylamino)-4-oxo-butyric acid]			
0.6	5.3	25	O=C(CCCc1ccc(Br)cc1)NC(CC(=O)c1ccc2oc3ccccc3c2c1)C(=O)O (stereo not drawn) [Example 31, 2-[4-(4-Bromo-phenyl)-butyrylamino]-4-dibenzofuran-2-yl-4-oxo-butyric acid]			
0.041	0.33	3.5	O=C(COCc1ccccc1)NC(CC(=O)c1ccc2oc3ccccc3c2c1)C(=O)O (stereo not drawn) [Example 32, 2-(2-Benzyloxy-acetylamino)-4-dibenzofuran-2-yl-4-oxo-butyric acid]			
0.06	0.64	4.7	CCCCCCC(=O)NC(CC(=O)c1ccc2oc3ccccc3c2c1)C(=O)O (stereo not drawn) [Example 33, 4-Dibenzofuran-2-yl-2-heptanoylamino-4-oxo-butyric acid]			
0.87	5.4	49	CCCCc1ccc(C(=O)NC(CC(=O)c2ccc3oc4ccccc4c3c2)C(=O)O)cc1 (stereo not drawn) [Example 34, 2-(4-Butyl-benzoylamino)-4-dibenzofuran-2-yl-4-oxo-butyric acid]			
0.11	1.1	11	N#Cc1ccc(C(=O)NC(CC(=O)c2ccc3oc4ccccc4c3c2)C(=O)O)cc1 (stereo not drawn) [Example 35, 2-(4-Cyano-benzoylamino)-4-dibenzofuran-2-yl-4-oxo-butyric acid]			
0.14	1	13	O=C(CC(NC(=O)c1sccc1Cl)C(=O)O)c1ccc2oc3ccccc3c2c1 (stereo not drawn) [Example 36, 2-[(3-Chloro-thiophene-2-carbonyl)-amino)-4-dibenzofuran-2-yl-4-oxo-butyric acid]			
5.2	28		O=C(CC(NC(=O)c1c(F)c(F)c(F)c(F)c1F)C(=O)O)c1ccc2oc3ccccc3c2c1 (stereo not drawn) [Example 40, 4-Dibenzofuran-2-yl-4-oxo-2-(2,3,4,5,6-pentafluoro-benzoylamino)-butyric acid]			

Compound	IC50 (MMP-2 (Gelatinase A); [1]) [µM]	IC50 (MMP-3 (stromelysin); [2]) [µM]	IC50 (MMP-13 (Collagenase 3); [3]) [µM]	IC50 (MMP-2 (Gelatinase A)) [µM]	IC50 (MMP-3 (stromelysin)) [µM]	IC50 (MMP-13 (Collagenase 3)) [µM]
CC(=O)N[C@@H](CC(=O)c1ccc2oc3ccccc3c2c1)C(=O)O [Example 4, (S)-2-Acetylamino-4-dibenzofuran-2-yl-4-oxo-butyric acid]		1.6				
